Data reported in US12466834B2, “Imidazodiazepinediones and methods of use thereof” (GFB (ABC), LLC, priority 2018, dated 2025).

Tests used:
[1] = target: T1, human TRPC5 (Homo sapiens, UniProt Q9UL62); assay: FLIPR calcium assay, inhibition of riluzole-activated TRPC5 calcium response; assay type: cell-based; conditions: ICLN-1633 cells; riluzole 30 μM stimulation; Fluo-4 calcium response; read-out: Inhibitor Potency Range (FLIPR)
T1 construct: expressed in transfected cells
T1 sequence (Q9UL62 1-973): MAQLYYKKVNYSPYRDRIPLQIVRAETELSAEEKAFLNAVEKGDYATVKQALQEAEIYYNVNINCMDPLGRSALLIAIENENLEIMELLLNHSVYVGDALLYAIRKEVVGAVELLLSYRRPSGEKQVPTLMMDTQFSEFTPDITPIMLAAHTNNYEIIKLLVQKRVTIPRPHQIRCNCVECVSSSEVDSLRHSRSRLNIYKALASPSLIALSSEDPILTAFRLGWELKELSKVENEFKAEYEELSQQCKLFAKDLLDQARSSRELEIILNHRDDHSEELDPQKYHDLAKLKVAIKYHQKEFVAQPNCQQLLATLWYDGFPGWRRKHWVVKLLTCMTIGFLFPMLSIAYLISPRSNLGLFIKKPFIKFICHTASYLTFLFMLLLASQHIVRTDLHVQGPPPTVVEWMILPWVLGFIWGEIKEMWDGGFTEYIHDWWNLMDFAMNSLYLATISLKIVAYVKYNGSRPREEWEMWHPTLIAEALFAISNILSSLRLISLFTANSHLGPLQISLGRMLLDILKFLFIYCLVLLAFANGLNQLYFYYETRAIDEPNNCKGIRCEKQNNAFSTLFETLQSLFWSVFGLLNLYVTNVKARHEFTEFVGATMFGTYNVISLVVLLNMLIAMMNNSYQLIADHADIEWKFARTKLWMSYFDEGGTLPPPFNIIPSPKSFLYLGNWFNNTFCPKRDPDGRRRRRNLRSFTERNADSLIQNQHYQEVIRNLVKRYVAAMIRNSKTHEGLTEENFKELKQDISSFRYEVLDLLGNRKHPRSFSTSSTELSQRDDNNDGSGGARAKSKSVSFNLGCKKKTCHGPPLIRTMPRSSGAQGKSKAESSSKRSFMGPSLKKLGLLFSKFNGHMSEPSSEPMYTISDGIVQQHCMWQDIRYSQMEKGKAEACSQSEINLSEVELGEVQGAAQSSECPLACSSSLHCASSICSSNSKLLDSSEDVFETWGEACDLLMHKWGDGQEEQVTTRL
Protocol: (§1) ICLN-1633 cells (HEK-TREx hTRPC5) expressing TRPC5 were generated as follows. Commercially available HekTrex-293 cells were seeded at 0.7×10^6 cells/well in a 1×6-well plate 24 hrs prior to transfection using 2 mL cell growth media containing no antibiotics (1× DMEM/high glucose (Hyclone #SH30022.02); 10% fetal bovine serum (Sigma) 2 mM sodium pyruvate, 10 mM HEPES). The human TRPC5 coding sequence (NM_012471 with a silent T478C mutation) was cloned into pcDNA5/TO (Invitrogen; Cat No. V103320) using hygromycin as the resistance gene and the plasmid (SEQ ID NO:1) propagated using T-Rex-293 cells (Invitrogen; Cat No. R71007) following manufacturer's directions. On day 2, 2 μg of plasmid DNA plus 6 μl of Xtreme-GENE HP reagent in Optimem (200 μl total volume) was prepared and incubated for 15 min at room temperature. This plasmid solution was then gently overlayed dropwise onto each well and the plate was gently swirled to mix complex with the media for approximately 30 seconds. Transfected cells were incubated at 37° C. in a 10% CO2 incubator for 24 hrs. The transfected cells were harvested and transferred into 2×150 mm dishes containing cell growth media with no antibiotics at 37° C.
Compounds were made up to, or supplied as a 10 mM stock solution generally using DMSO as the vehicle. 10-point dose response curves were generated using the Echo-550 acoustic dispenser. Compound source plates were made by serially diluting compound stocks to create 10 mM, 1 mM, and 0.1 mM solutions in DMSO into Echo certified LDV plates. The Echo then serially spotted 100% DMSO stock solutions into source dose response plates to generate a 4-fold dilution scheme. 100% DMSO was added to the spotted dose response plates to bring the final volume to 5 μl. 300 nl of the dose response stock plate was then spotted into pre-incubation and stimulation assay plates. 50 μl of pre-incubation buffer and 100 μl of stimulation buffer was then added to the plates resulting in a final assay test concentration range of 30 μM to 0.0001 μM with a final DMSO concentration of 0.3%.
Human ICLN-1633 cells expressing were plated onto 384 well, black poly-D-lysine-coated microplates and maintained in TRPC5 growth media the day prior to use for experiments. TRPC5 expression was induced by the application of 1 μg/mL tetracycline at the time of plating. Media was removed from the plates and 10 μl of 4 μM of Fluo-4 AM (mixed with equal volume of Pluronic F-127) in Earls's Balanced Salt Solution (EBSS) was added to the cells. Cells were incubated at room temperature, protected from light, for 60-90 minutes. After the incubation period, the dye was removed and replaced with 10 μl of EBSS. Cell, pre-incubation and stimulation plates were loaded onto the FLIPR-II and the assay was initiated. The FLIPR measured a 10 second baseline and then added 10 μl of 2× compounds (or controls). Changes in fluorescence were monitored for an additional 5 minutes. After the 5 minute pre-incubation, 20 μl of 2× riluzole (with 1× compound or controls) was added to the cell plate. The final riluzole stimulation concentration in the assay was 30 μM. After the riluzole addition, changes in fluorescence were monitored for an additional 5 minutes. Reduction in the riluzole-activated calcium response relative to control wells was reported as inhibition. A compound-mediated increase in the riluzole response relative to control riluzole response (no test agent present) with no enhancement of calcium entry during preincubation phase was reported as an agonist response.
Compound inhibition of TRPC5 calcium response was determined as follows. After the riluzole addition, fluorescence was monitored for a 5-minute period. For inhibition, the maximum relative fluorescence response (minus the control response of 1 μM of an internal control compound known to maximally block TRPC5 calcium response, the “REF INHIB” in the formula below) was captured and exported from the FLIPR. […]

[2] = target: T1, human TRPC5; assay: Automated patch clamp assay (QPatch), antagonist mode; assay type: cell-based; conditions: HEK-TREx hTRPC5 cells; channel activated with Rosiglitazone 30 μM; normalised to ML-204 block; read-out: Qpatch Potency Range
Protocol: as §1
The next day selection was initiated to generate a stable pool by adding cell growth media containing 150 μg/mL Hygromycin and 5 μg/mL Blasticidin and cells were allowed to grow. Media with the selection agent was changed every 1-2 days as needed to remove dead cells. After 7 days, the hygromycin concentration was reduced to 75 μg/mL and cells growth was allowed to continue.
Single clones were selected as follows. The stable pool was diluted to 10 cells/mL and seeded (100 μl/well) into 24×96 well plates (˜1 cell/well) and allowed to grow for 7 days in cell growth media. Fresh media (100 μl) was added and the cells allowed to grow for another 1-2 weeks and then stored frozen or used immediately.
The automated electrophysiological assay was carried out at room temperature. On the day of the experiment, TRPC5 cells were cultured according to our Standard Operating Procedure. Briefly, cells were harvested using TrypLE™ Express, re-suspended in serum free medium, added to the automated platform and used within 0.5-3 hours. Internal and external physiological solutions were freshly prepared prior to the assay. The external solution contained: 145 mM NaCl, 4 mM KCl, 2 mM CaCl2, 1 mM MgCl2, 10 mM HEPES, 10 mM glucose, pH 7.4 with NaOH and 310 mOsm/L. The internal solution contained 120 mM L-aspartic acid, 120 mM CsOH·H2O, 20 mM CsCl, 2 mM MgCl2, 8.8 mM CaCl2, 10 mM EGTA, 10 mM HEPES and 2 mM Na2ATP; pH 7.2 with CsOH and 330 mOsm/L. The free internal Ca^2+ concentration was buffered to 1 μM, according to the WCabuf software. The automated electrophysiological platform QPatch 16 from Sophion (Denmark) was used to carry out the compounds profiling. The series resistance and quality of seals were continuously monitored during the experiments. Data were analyzed using Sophion QPatch assay software 5.6 (Odense). Data were normalized using the maximum activation obtained during the pre-compound agonist application as the top value (1.0) and maximum inhibition induced by ML-204 as the bottom value (0.0). IC50 values were calculated using a least squares regression algorithm (Hill equation).
To monitor the ion currents, a voltage ramp from −100 mV to +100 mV, over 300 ms, was applied every 10 seconds, from a holding potential of −60 mV. Antagonist-mode: After recording for a minimum of 60 seconds control period, the EC60 concentration of the TRPC5 agonist, Rosiglitazone (30 μM), was applied to activate the channel. After reaching steady-state, co-application of increasing concentrations of test compound were applied followed by two applications of Rosiglitazone EC60 and a saturating concentration of the specific blocker ML-204 (100 μM).

IC50 [1] [nM]	IC50 [2] [nM]	SMILES
1 to 1000	–	CN1C(=O)CN([C@@H]2CC[C@@H](O)C2)C(=O)c2c1nc(Oc1cccc(OC(F)(F)F)c1)n2Cc1ccc(Cl)cc1 (single isomer, unassigned) [Compound 15]
1000 to 10000	–	CN1C(=O)CN([C@H]2CC[C@H](O)C2)C(=O)c2c1nc(Oc1cccc(OC(F)(F)F)c1)n2Cc1ccc(Cl)cc1 (single isomer, unassigned) [Compound 16]
–	> 30000	CN1C(=O)[C@H](CCO)N(C)C(=O)c2c1nc(Oc1cccc(OC(F)(F)F)c1)n2Cc1ccc(Cl)cc1 (single isomer, unassigned) [Compound 17]
> 10000	1 to 1000	CN1C(=O)[C@@H](CCO)N(C)C(=O)c2c1nc(Oc1cccc(OC(F)(F)F)c1)n2Cc1ccc(Cl)cc1 (single isomer, unassigned) [Compound 18]
1 to 1000	1000 to 30000	C[C@H]1C(=O)N(C)c2nc(Oc3cccc(F)c3)n(Cc3ccc(Cl)cc3)c2C(=O)N1CCCO (single isomer, unassigned) [Compound 20]
1 to 1000	–	O=C1c2c(nc(Oc3cccc(OC(F)(F)F)c3)n2Cc2ccc(Cl)cc2)N2CCC[C@@H]2CN1CCCO (single isomer, unassigned) [Compound 34]
1000 to 10000	–	O=C1c2c(nc(Oc3cccc(OC(F)(F)F)c3)n2Cc2ccc(Cl)cc2)N2CCC[C@H]2CN1CCCO (single isomer, unassigned) [Compound 35]
–	1000 to 30000	CN1C(=O)CN([C@H]2C[C@H](O)C2)C(=O)c2c1nc(Oc1cccc(OC(F)(F)F)c1)n2Cc1ccc(Cl)cc1 [Compound 13]
1 to 1000	–	O=C1c2c(nc(Oc3cccc(F)c3)n2Cc2ccc(Cl)cc2)N2CCC[C@H]2C(=O)N1CCCO [Compound 26]
1 to 1000	–	CCCCn1c(Oc2cccc(Cl)c2)nc2c1C(=O)N(CCCO)C(=O)[C@@H]1CCCN21 [Compound 32]
1 to 1000	–	O=C1c2c(nc(Oc3cccc(Cl)c3)n2Cc2ccc(Cl)cc2)N2CCC[C@H]2C(=O)N1CCCO [Compound 33]

More lines, now with the values behind:

SMILES	IC50 [1] [nM]	IC50 [2] [nM]
C[C@H](c1ccc(Cl)cc1)n1c(Oc2cccc(F)c2)nc2c1C(=O)N(CCCO)CC(=O)N2C (single isomer, unassigned) [Compound 6]	> 10000	> 30000
C[C@@H](c1ccc(Cl)cc1)n1c(Oc2cccc(F)c2)nc2c1C(=O)N(CCCO)CC(=O)N2C (single isomer, unassigned) [Compound 7]	> 10000	1000 to 30000
CN1CCN(CCCO)C(=O)c2c1nc(Oc1cccc(OC(F)(F)F)c1)n2Cc1ccc(Cl)cc1 [Compound 1, 1-[(4-chlorophenyl)methyl]-7-(3-hydroxypropyl)-4-methyl-2-[3-(trifluoromethoxy)phenoxy]-1H,4H,5H,6H,7H,8H-imidazo[4,5-e][1,4]diazepin-8-one]	–	1000 to 30000
CCCCn1c(Oc2cccc(OC(F)(F)F)c2)nc2c1C(=O)N(CCCO)CC(=O)N2C [Compound 3]	1000 to 10000	–
CN1C(=O)CN(CCCO)C(=O)c2c1nc(Oc1cccc(F)c1)n2Cc1ccc(Cl)cc1 [Compound 4]	1000 to 10000	–
COCCCN1CC(=O)N(C)c2nc(Oc3cccc(OC(F)(F)F)c3)n(Cc3ccc(Cl)cc3)c2C1=O [Compound 8, 1-[(4-chlorophenyl)methyl]-7-(3-methoxypropyl)-4-methyl-2-[3-(trifluoromethoxy)phenoxy]-1H,4H,5H,6H,7H,8H-imidazo[4,5-e][1,4]diazepine-5,8-dione]	1000 to 10000	–
CN1C(=O)CN(CC(O)CO)C(=O)c2c1nc(Oc1cccc(OC(F)(F)F)c1)n2Cc1ccc(Cl)cc1 (centres unmarked) [Compound 9, 1-[(4-chlorophenyl)methyl]-7-(2,3-dihydroxypropyl)-4-methyl-2-[3-(trifluoromethoxy)phenoxy]-1H,4H,5H,6H,7H,8H-imidazo[4,5-e][1,4]diazepine-5,8-dione]	–	1000 to 30000
CN1C(=O)CN(CCO)C(=O)c2c1nc(Oc1cccc(OC(F)(F)F)c1)n2Cc1ccc(Cl)cc1 [Compound 10, 1-[(4-chlorophenyl)methyl]-7-(2-hydroxyethyl)-4-methyl-2-[3-(trifluoromethoxy)phenoxy]-1H,4H,5H,6H,7H,8H-imidazo[4,5-e][1,4]diazepine-5,8-dione]	1000 to 10000	–
